What was measured:
Type in all cases: physicochemical
[1] = pH at which torsemide begins to precipitate on acidifying the basified aqueous/alcohol solution; details: water/organic solvent (isopropanol or ethanol) solution, pH lowered with acid
Experimental: An organic solvent is then added to the torsemide solution with stirring. Suitable solvents include water soluble or partially water soluble alcohols such as propanol, isopropanol and ethanol. Preferably, the solvent is isopropanol or ethanol. The pH of the torsemide solution is then lowered by the addition of a suitable acid until the solution begins to become cloudy and torsemide Dupont Form 2 begins to precipitate. Torsemide begins to precipitate at about pH 6. Suitable acids include acetic acid, hydrochloric acid, sulfuric acid, mineral acids and the like. Acetic acid is preferred. Since torsemide is known to decompose at pH 3.0, the pH of the solution is preferably maintained at about 6±0.1 with a minimum pH of […] and a maximum pH of 7.5±0.5. Torsemide Dupont Form 2 is then isolated by filtration and drying to remove solvent.
An organic solvent is then added to the torsemide solution with stirring. Suitable solvents include water soluble or partially water soluble alcohols such as propanol, isopropanol and ethanol. Preferably, the solvent is isopropanol or ethanol. The pH of the torsemide solution is then lowered by the addition of a suitable acid until the solution begins to become cloudy and torsemide Dupont Form 2 solvent adduct begins to precipitate. Torsemide begins to precipitate at about pH 6. […]

[2] = stability of the crystal form in an ethanol slurry; details: stirred at room temperature
Experimental: (§1) In another embodiment of the present invention, torsemide modification I may be made from torsemide modification II by reslurry in ethanol. By the process of the present invention, torsemide modification II is stirred at room temperature in ethanol for a time sufficient to induce the transformation of torsemide modification II to torsemide modification I. Preferably the mixture is stirred for 2 hours. Torsemide modification I is isolated upon filtering the mixture followed by drying under high vacuum at a temperature of about 40° C. to about 60° C. for a sufficient time to complete drying. Drying is complete upon reaching constant weight. It has been observed that torsemide modification I is stable in an ethanol slurry for at least 65 hours.
as §1, with “dimethyl formamide (DMF).” for “ethanol.”, “methods” for “process”, “DMF” for “ethanol”, “I.” for “I. Preferably the mixture is stirred for 2 hours.”, “It has been observed that torsemide modification I is stable in an ethanol slurry for at least 65 hours.” left out

[3] = solubility of amorphous torsemide compared with crystalline forms; details: compared with crystalline forms reported in U.S. Pat. No. 5,914,336, U.S. Pat. No. Re. 34,672 and WO 00/20395

In the case of `Cc1cccc(Nc2ccncc2S(=O)(=O)NC(=O)NC(C)C)c1` [torsemide, 1-Isopropyl-3-[(4-m-toluidino-3-pyridyl)sulfonyl]urea], the “pH at which torsemide begins to precipitate” value [1] is reported as “about 6 pH”.
In the case of `Cc1cccc(Nc2ccncc2S(=O)(=O)NC(=O)NC(C)C)c1` [torsemide modification I], the “time stable in an ethanol slurry” value [2] is reported as “at least 65 hours”.
For `Cc1cccc(Nc2ccncc2S(=O)(=O)NC(=O)NC(C)C)c1` [amorphous torsemide], the “solubility relative to crystalline forms of torsemide” value [3] was “more soluble than crystalline forms of torsemide”.

— US6465496B1, “Torsemide polymorphs” (Teva Pharmaceutical Industries, Ltd., priority 1999, dated 2002)
